Consider 18 molecules from patent publication US20140243374A1, “Novel Sulfonamides” (The Brigham and Women's Hospital, Inc., priority 2011, published 2014).

Where “and” joins values, the source holds several entries; their conditions need not be identical. Equal entries are not always repeated.

Data set [1] deals with T1, γ-secretase (Notch cleavage activity) (Homo sapiens, UniProt P49768).
T1 construct: endogenous in cells; host or cells: SUP-T1 cells
Briefly: Cleaved Notch1 Sandwich ELISA (SUP-T1 cell line). The class given is cell-based. The note with it: for IC50: SUP-T1 cells, 16 h; for Notch Elisa/Aβ42: ratio Notch Elisa IC50 to Aβ42 IC50. The procedure:
Cleaved Notch1 Sandwich ELISA.
This assay was used to determine if the compounds of interest inhibit the Notch cleavage activity of γ-secretase in SUP-T1 cell line, which endogenously expresses a truncated Notch receptor fragment that is a viable gamma-secretase substrate. The base medium for this cell line is ATCC-formulated RPMI-1640 Medium with fetal bovine serum to a final concentration of 10%. Prepare dilution of SUP-T1 cells in complete growth medium to 1.0×10^6 cells/mL, seed 1.5 mL per well of each cell dilution into a 6-well plate. Collect cells treated with serial diluted compounds in DMSO after 16 h, then using equal amount of protein isolated from samples to measure Notch intracellular cleavage by PathScan® Sandwich ELISA Kit (Cell Signaling Tech 7194S).
(In general: An ELISA detects its analyte on a solid surface through an enzyme-linked reagent.)

The target of data set [2] is T2, γ-secretase (cleavage of Notch) (Homo sapiens, UniProt P49768).
T2 construct: endogenous in cells; host or cells: U2OS luciferase reporter cells with Tet-on Notch
Briefly: Notch cellular assay (luciferase reporter U2OS cells). The class given is cell-based. To be noted: for IC50: U2OS luciferase reporter cells; for Notch Luc/Aβ42: ratio Notch luciferase IC50 to Aβ42 IC50. As for the experimental part:
This assay was used to determine if the compounds of interest inhibit the cleavage of Notch by γ-secretase in cells. A U2OS cell line in which the luciferase expression is adjusted by active Notch was used in this assay Notch expression is adjusted using Tet-on promoter. Luciferase reporter U2OS cells are plated at 1000 cells/well in 96 well plates in DMEM containing 100 μg/mL hygromycin, 15 μg/mL blasticidin and 1 μg/mL Tetracycline. Compounds were added 24 h after plating and the cells are lysed 6 days after adding compounds. Luciferase expression was performed using Steady-Glo Luciferase Assay System (Promega).
(In a reporter assay the amount or activity of a reporter protein is the signal.)

The target of data set [3] is T3, γ-secretase (cleavage of APP, Aβ42) (Homo sapiens, UniProt P49768).
T3 construct: endogenous in cells; host or cells: HEK AP-GL-T16 luciferase reporter cells (tetracycline-induced APP substrate)
Kind of data set: Aβ (1-42) cellular assay (Aβ ELISA, HEK AP-GL-T1 6 cells). Type of data set: cell-based. To be noted: for IC50: cellular Aβ42 ELISA, 24 h compound treatment. The procedure: Aβ (1-42) Cellular Assay.
The following assay was used to determine the extent to which the compounds of interest inhibit the cleavage of APP in vivo. AβELISA is a commercial fluorometric kit from Biosource (Invitrogen 89344). Luciferase reporter HEK AP-GL-T1 6 cells were plated at 50,000 cells/well in 96 well plates in DMEM media containing 10% tetracyclin free […], 250 μg/mL zeocin, 200 μg/mL hygromycin, and 5 μg/mL blasticidin. Compounds were added 24 h after plating and APP processing is induced simultaneously by addition of tetracycline. Following a 24 h compound treatment, […] of conditioned cell media is collected, mixed with ELISA diluent buffer containing 2 mM AEBSF and 12 mM o-phenanthroline, and immediately frozen at −80° C. For the ELISA, the samples were brought to room temperature and spun at 5000 rpm for 5 min. Samples ([…]) are incubated in the ELISA plate with […] detection antibody on a shaker at room temperature for 3 h. Wells were then washed 4 times with wash buffer and 100 mL of secondary antibody are added and incubated at room temperature for 30 min. Wells were again washed 4 times with wash buffer and 100 mL of fluorescent substrate solution are added. After 30 minutes of incubation, fluorescent signals are determine on a Gemini reader at ex 460 nm and em 560 nm. The amount of Aβ levels in each sample was determined from a standard curve generated by known concentrations of Aβ peptide run simultaneously with the samples.

By IC50 is commonly meant the concentration needed to halve the response being measured. Read a high IC50 as weaker potency in that assay. On to `O=C(O)c1ccc(CN(C2CCCCC2F)S(=O)(=O)c2ccc(Cl)cc2)cc1` (single isomer, unassigned) [Example 58, 4-((4-Chloro-N-(2-fluorocyclohexyl)phenylsulfonamido)methyl)benzoic acid], for which the IC50 was 10100 nM in data set [1]; 259000 nM in data set [2]; 341 nM and 686 nM and 207 nM in data set [3]. The “Notch Elisa/Aβ42” value in data set [1] (listed as 58/1231A) is reported as 25. Further, the “Notch Luc/Aβ42” value in data set [2] (listed as 58/1231A) was 630.

On to `O=C(O)c1ccc(CN(C2CCCCC2F)S(=O)(=O)c2ccc(Cl)cc2)cc1` (single isomer, unassigned) [Example 59, 4-((4-Chloro-N-(2-fluorocyclohexyl)phenylsulfonamido)methyl)benzoic acid], for which the IC50 in data set [1] was 2930 nM; in data set [2], 9400 nM; in data set [3], 60.7 nM and 195 nM and 101 nM. Moreover, in data set [1] (listed as 59/1231B), the “Notch Elisa/Aβ42” value is 25. Moreover, the “Notch Luc/Aβ42” value in data set [2] (listed as 59/1231B) came to 79.

Usually melting point stands for the temperature of the solid-liquid transition. In turn, `O=C(O)c1ccc(CN(C2CCOCC2)S(=O)(=O)c2ccc(Cl)cc2)cc1` [Example 1, 4-((4-Chloro-N-(tetrahydro-2H-pyran-4-yl)phenylsulfonamido)methyl)benzoic acid] returned a melting point of 218 to 219 °C. In data set [3] (at 1 μM (concentration in brackets), read-out: Aβ42 % Inh), the inhibition at 1 µM was 6%.

Take `COC(=O)c1ccc(CN(C2CCCCC2C)S(=O)(=O)c2ccc(Cl)cc2)cc1` (stereo not shown) [Example 2, Methyl 4-((4-chloro-N-(2-methylcyclohexyl)phenylsulfonamido)methyl)benzoate]: the values for the IC50 in data set [2] and in data set [3] were 3000 nM and 3.4 nM, respectively.

`CC1CCCCC1N(Cc1ccc(C(=O)N[C@H](C)CO)cc1)S(=O)(=O)c1ccc(Cl)cc1` (stereo partly drawn) [Example 4, 4-((4-Chloro-N-(2-methylcyclohexyl)phenylsulfonamido)methyl)-N-((R)-1-hydroxypropan-2-yl)benzamide]: in data set [1], the IC50 is 180 nM and 120 nM; the “Notch Elisa/Aβ42” value came out at 188. For the same molecule, the “Notch Luc/Aβ42” value in data set [2] is 2950. For the same molecule, the IC50 in data set [3] is 0.87 nM and 0.65 nM and 0.89 nM.

`COC[C@@H](C)NC(=O)c1ccc(CN(C2CCCCC2C)S(=O)(=O)c2ccc(Cl)cc2)cc1` (stereo partly drawn) [Example 14, 4-((4-Chloro-N-(2-methylcyclohexyl)phenylsulfonamido)methyl)-N-((R)-1-methoxypropan-2-yl)benzamide]: the IC50 in data set [1] is 710 nM; in data set [2] it was 303 nM; in data set [3], 0.7 nM. For the same molecule, the “Notch Elisa/Aβ42” value in data set [1] was 1014. Moreover, the “Notch Luc/Aβ42” value in data set [2] (listed as 14/1136) turned out to be 433.

As for `CC[C@@H](C1CCCC1)N(Cc1ccc(C(=O)OC)cc1)S(=O)(=O)c1ccc(Cl)cc1` [Example 21, (S)-Methyl 4-((4-chloro-N-(1-cyclopentylpropyl)phenylsulfonamido)methyl)benzoate], in data set [2], the IC50 was determined as 13000 nM and the “Notch Luc/Aβ42” value came to 542. The molecule also came in with an IC50 in data set [3] of 24 nM.

On to `CC1CCCCC1N(Cc1ccc(C(=O)NCCC(=O)O)cc1)S(=O)(=O)c1ccc(Cl)cc1` (stereo not shown) [Example 36, 3-(4-((4-Chloro-N-(2-methylcyclohexyl)phenylsulfonamido)methyl)benzamido)propanoic acid], for which, in data set [2], half-maximal inhibition (IC50) required 4580 nM and the “Notch Luc/Aβ42” value turned out to be 57. This molecule also yielded an IC50 in data set [3] of 80.7 nM.

`CC1CCCCC1N(Cc1ccc(C(=O)NCCN(C)C)cc1)S(=O)(=O)c1ccc(Cl)cc1` (stereo not shown) [Example 40, 4-((4-Chloro-N-(2-methylcyclohexyl)phenylsulfonamido)methyl)-N-(2-(dimethylamino)ethyl)benzamide]: the results for the IC50 in data set [2] and in data set [3] were 3030 nM and 2.56 nM, respectively.

Turning to `COC[C@@H](C)NC(=O)c1ccc(CN(C2CCCCC2C)S(=O)(=O)c2ccc(Cl)cc2)cc1` (stereo partly drawn) [Example 46, 4-((4-Chloro-N-(2-methylcyclohexyl)phenylsulfonamido)methyl)-N-((R)-1-methoxypropan-2-yl)benzamide], the concentration for half-maximal inhibition (IC50) came out at 710 nM in data set [1], 303 nM in data set [2] and 0.7 nM in data set [3]. The “Notch Luc/Aβ42” value in data set [2] (listed as 46/1221) worked out at 432.

As to `CC1CCCCC1N(Cc1ccc(C(=O)NC[C@H](C)O)cc1)S(=O)(=O)c1ccc(Cl)cc1` (stereo partly drawn) [Example 47, 4-((4-Chloro-N-(2-methylcyclohexyl)phenylsulfonamido)methyl)-N—((S)-2-hydroxypropyl)benzamide], the IC50 came out at 350 nM in data set [1], 690 nM in data set [2] and 0.873 nM in data set [3]. In data set [1], the “Notch Elisa/Aβ42” value came out at 401. Besides, the “Notch Luc/Aβ42” value in data set [2] is listed as 791.

Take `CC(=O)CNC(=O)c1ccc(CN(C2CCCCC2C)S(=O)(=O)c2ccc(Cl)cc2)cc1` (stereo not shown) [Example 48, 4-((4-Chloro-N-(2-methylcyclohexyl)phenylsulfonamido)methyl)-N-(2-oxopropyl)benzamide]: in data set [1], 220 nM corresponded to half-maximal inhibition (IC50) and the “Notch Elisa/Aβ42” value is 314. Moreover, in data set [2], the IC50 stood at 182 nM and the “Notch Luc/Aβ42” value is on record as 260. The molecule further gave an IC50 in data set [3] of 0.715 nM.

On to `CC1CCCC(N(Cc2ccc(C(=O)N[C@H](C)CO)cc2)S(=O)(=O)c2ccc(Cl)cc2)C1` (stereo partly drawn) [Example 50, 4-((4-Chloro-N-(3-methylcyclohexyl)phenylsulfonamido)methyl)-N—((R)-1-hydroxypropan-2-yl)benzamide], for which, in data set [1], the IC50 was 2160 nM and the “Notch Elisa/Aβ42” value was determined as 309. In data set [2], the midpoint of inhibition, the IC50, lay at 10600 nM and the “Notch Luc/Aβ42” value is listed as 1456. Moreover, inhibition in data set [3] was half-maximal at 7.32 nM (IC50).

`O=C(O)c1ccc(CN(C2CCCC(C(F)(F)F)C2)S(=O)(=O)c2ccc(Cl)cc2)cc1` (stereo not shown) [Example 51, 4-((4-Chloro-N-(3-(trifluoromethyl)cyclohexyl)phenylsulfonamido)methyl)benzoic acid]: in data set [2], the IC50 was found to be 3230 nM and the “Notch Luc/Aβ42” value is recorded as 52. This molecule returned an IC50 in data set [3] of 62.2 nM.

As to `CC1CCCCC1N(Cc1ccc(C(=O)NCC(F)(F)F)cc1)S(=O)(=O)c1ccc(Cl)cc1` (stereo not shown) [Example 54, 4-((4-Chloro-N-(2-methylcyclohexyl)phenylsulfonamido)methyl)-N-(2,2,2-trifluoroethyl)benzamide], in data set [2], the IC50 worked out at 574 nM and the “Notch Luc/Aβ42” value is given as 220. Moreover, it took 2.61 nM to reach half-maximal inhibition in data set [3] (IC50).

In the case of `CC1CCCCC1N(Cc1ccc(C(=O)NCCC(F)(F)F)cc1)S(=O)(=O)c1ccc(Cl)cc1` (stereo not shown) [Example 55, 4-((4-Chloro-N-(2-methylcyclohexyl)phenylsulfonamido)methyl)-N-(3,3,3 trifluoropropyl)benzamide], in data set [2], the IC50 was 1100 nM and the “Notch Luc/Aβ42” value is recorded as 256. The same molecule yielded an IC50 in data set [3] of 4.3 nM.

With `O=C(O)c1ccc(CN(C2CCCCC2F)S(=O)(=O)c2ccc(Cl)cc2)cc1` (stereo not shown) [Example 57, 4-((4-Chloro-N-(2-fluorocyclohexyl)phenylsulfonamido)methyl)benzoic acid], the IC50 in data set [1] is 1070 nM; in data set [2], 28600 nM; in data set [3], 50.1 nM and 79.6 nM and 98.5 nM. For the same molecule, the “Notch Elisa/Aβ42” value in data set [1] (listed as 57/1231) is given as 14. For the same molecule, in data set [2] (listed as 57/1231), the “Notch Luc/Aβ42” value was determined as 376.

With `COCC(C)NC(=O)c1ccc(CN(C2CCCCC2F)S(=O)(=O)c2ccc(Cl)cc2)cc1` (stereo not shown) [Example 85, 4-((4-Chloro-N-(2-fluorocyclohexyl)phenylsulfonamido)methyl)-N-(1-methoxypropan-2-yl)benzamide], in data set [1], inhibition was half-maximal at 1180 nM (IC50) and the “Notch Elisa/Aβ42” value came to 89. In data set [3], this molecule had an IC50 of 13.3 nM.
